Read-outs that look alike come from different tables or passages of the source.
Experiments:
[1] = biological target: PIM (PIM-1, PIM-2, and/or PIM-3); test: PIM-1, PIM-2 and PIM-3 inhibition, biochemical chemiluminescence assays (Kinase Glo, IC50 determination); conditions: Table 1 activity class; PIM refers to PIM-1, PIM-2, and/or PIM-3; read-out: PIM IC50 (Activity B)
CK2 = CK2 (Homo sapiens, UniProt P68400); test: CK2 inhibition, biochemical chemiluminescence holoenzyme assay (Kinase Glo, IC50 determination)
Chain of CK2 (P68400 whole entry): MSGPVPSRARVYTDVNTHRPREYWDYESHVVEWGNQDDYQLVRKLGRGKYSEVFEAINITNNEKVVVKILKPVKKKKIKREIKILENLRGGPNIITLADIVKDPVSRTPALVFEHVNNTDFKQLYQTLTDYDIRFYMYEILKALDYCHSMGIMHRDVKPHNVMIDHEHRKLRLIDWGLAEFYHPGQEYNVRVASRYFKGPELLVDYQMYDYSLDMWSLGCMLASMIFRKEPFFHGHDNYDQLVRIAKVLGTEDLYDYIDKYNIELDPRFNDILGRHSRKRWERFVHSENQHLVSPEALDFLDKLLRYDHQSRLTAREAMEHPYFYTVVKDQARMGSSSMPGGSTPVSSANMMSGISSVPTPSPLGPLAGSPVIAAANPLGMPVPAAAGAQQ
Chain of CK2 (P67870 whole entry partner): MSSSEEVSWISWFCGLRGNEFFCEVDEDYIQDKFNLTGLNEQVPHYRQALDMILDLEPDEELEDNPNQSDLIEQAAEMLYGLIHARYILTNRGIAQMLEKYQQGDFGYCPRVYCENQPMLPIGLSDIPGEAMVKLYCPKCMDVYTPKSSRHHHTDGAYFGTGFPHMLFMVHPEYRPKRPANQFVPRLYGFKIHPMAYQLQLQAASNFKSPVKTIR
In short: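 Holoenzyme CK2 assay; compounds pre-incubated with substrate and enzyme, then reacted 150 min at 24-27° C. Remaining ATP measured as luminescence with Kinase Glo, and IC50 derived from the signal.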

CDC7 = CDC7 (Homo sapiens, UniProt O00311); test: CDC7 inhibition, biochemical chemiluminescence assay (Kinase Glo, IC50 determination)
Chain of CDC7 (O00311 whole entry): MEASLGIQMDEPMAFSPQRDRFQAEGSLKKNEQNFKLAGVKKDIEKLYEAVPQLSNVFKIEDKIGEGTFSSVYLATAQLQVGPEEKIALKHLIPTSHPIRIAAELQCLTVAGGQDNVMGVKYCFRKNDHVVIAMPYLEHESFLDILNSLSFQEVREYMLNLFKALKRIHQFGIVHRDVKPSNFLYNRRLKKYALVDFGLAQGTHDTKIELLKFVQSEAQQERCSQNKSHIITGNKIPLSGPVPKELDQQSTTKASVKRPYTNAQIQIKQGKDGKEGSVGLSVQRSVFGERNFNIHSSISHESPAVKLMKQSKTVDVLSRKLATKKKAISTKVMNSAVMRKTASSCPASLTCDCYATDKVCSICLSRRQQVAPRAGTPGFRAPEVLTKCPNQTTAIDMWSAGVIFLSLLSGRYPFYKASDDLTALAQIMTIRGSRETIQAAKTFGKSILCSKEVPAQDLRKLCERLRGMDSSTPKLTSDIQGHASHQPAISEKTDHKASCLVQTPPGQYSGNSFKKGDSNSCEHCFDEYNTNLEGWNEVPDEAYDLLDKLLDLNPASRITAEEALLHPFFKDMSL
Chain of CDC7 (Q9UBU7 whole entry partner): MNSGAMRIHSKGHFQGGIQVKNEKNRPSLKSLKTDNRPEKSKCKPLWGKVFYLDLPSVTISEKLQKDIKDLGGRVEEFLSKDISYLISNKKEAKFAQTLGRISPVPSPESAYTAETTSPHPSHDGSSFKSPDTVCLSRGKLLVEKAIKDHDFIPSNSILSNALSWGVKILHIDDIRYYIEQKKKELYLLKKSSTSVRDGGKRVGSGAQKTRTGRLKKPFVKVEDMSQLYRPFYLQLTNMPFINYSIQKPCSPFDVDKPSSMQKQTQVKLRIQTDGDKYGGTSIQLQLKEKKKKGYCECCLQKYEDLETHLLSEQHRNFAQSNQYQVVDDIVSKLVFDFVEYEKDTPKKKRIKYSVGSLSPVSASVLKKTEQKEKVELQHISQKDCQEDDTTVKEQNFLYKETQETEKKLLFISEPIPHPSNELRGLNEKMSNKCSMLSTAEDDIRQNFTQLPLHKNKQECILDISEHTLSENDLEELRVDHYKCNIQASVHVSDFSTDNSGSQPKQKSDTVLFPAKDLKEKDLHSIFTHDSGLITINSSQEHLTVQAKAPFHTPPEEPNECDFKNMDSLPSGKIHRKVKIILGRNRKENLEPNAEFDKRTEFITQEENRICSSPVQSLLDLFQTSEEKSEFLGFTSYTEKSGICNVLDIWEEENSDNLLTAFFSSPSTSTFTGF
In short: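 CDC7 enzyme preincubated with compound 10 min at ambient temperature, then ATP mix in Tris Base added; reaction 90 min at 24-27 °C. Remaining ATP quantified by Kinase Glo luminescence to give IC50.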

[2] = Table 1 activity class, symbol given only if active, read-out: CK2 IC50 (Activity C)
[3] = Table 1 activity class, symbol given only if active, read-out: CDC7 IC50 (Activity A)
[4] = compounds in Table 1, read-out: CDC7 IC50 value

SMILES | IC50 [1] [µM] | IC50 (CK2; [2]) [µM] | IC50 (CDC7; [3]) [µM] | IC50 (CDC7; [4]) [µM] | IC50 (CK2) [µM] | IC50 (CDC7; CDC7 IC50 (Activity A), Table 1 activity class, symbol given only if active) [µM]
O=c1[nH]c(CN2CC[C@H](O)C2)nc2c1oc1ccc3c(c12)OCO3 [Compound 476, 9-{[(3S)-3-hydroxypyrrolidin-1-yl]methyl}[1,3]dioxolo[4,5][1]benzofuro[3,2-d]pyrimidin-7(8H)-one] | < 10 | < 10 | < 10 | < 0.1 |  | 
O=c1[nH]c(CN2C3CCC2CC(O)C3)nc2c1oc1ccc(Br)cc12 (centres unmarked) [Compound 398, 8-bromo-2-[(3-hydroxy-8-azabicyclo[3.2.1]oct-8-yl)methyl][1]benzofuro[3,2-d]pyrimidin-4(3H)-one] | < 10 |  |  |  | < 10 | < 10
CC1(C)CC[C@@H](c2nc3c(oc4ccc(Br)cc43)c(=O)[nH]2)N1 [Compound 515, 8-bromo-2-[(2S)-5,5-dimethylpyrrolidin-2-yl][1]benzofuro[3,2-d]pyrimidin-4(3H)-one] | < 10 | < 10 | < 10 | < 0.1 |  | 
CN(C)Cc1ccc(-c2nc3c(oc4ccc(Br)cc43)c(=O)[nH]2)c(Cl)c1 [Compound 381, 8-bromo-2-{2-chloro-4-[(dimethylamino)methyl]phenyl}[1]benzofuro[3,2-d]pyrimidin-4(3H)-one] | < 10 | < 10 | < 10 |  |  | 
CC(c1nc2c(oc3ccc(Br)cc32)c(=O)[nH]1)N1CC[C@H](O)C1 (stereo partly drawn) [Compound 508, 8-bromo-2-{1-[(3S)-3-hydroxypyrrolidin-1-yl]ethyl}[1]benzofuro[3,2-d]pyrimidin-4(3H)-one] | < 10 | < 10 | < 10 | < 0.1 |  | 
NC(Cc1cccs1)c1nc2c(oc3ccc(Br)cc32)c(=O)[nH]1 (centres unmarked) [Compound 538, 2-[1-amino-2-(2-thienyl)ethyl]-8-bromo[1]benzofuro[3,2-d]pyrimidin-4(3H)-one] | < 10 | < 10 | < 10 |  |  | 
NC(CCc1ccccc1)c1nc2c(oc3ccc(Br)cc32)c(=O)[nH]1 (stereo in doubt) [Compound 537, 2-[(1S)-1-amino-3-phenylpropyl]-8-bromo[1]benzofuro[3,2-d]pyrimidin-4(3H)-one] | < 10 | < 10 | < 10 |  |  | 
O=c1[nH]c(CN2CC[C@H](F)C2)nc2c1oc1ccc(Br)cc12 [Compound 308, 8-bromo-2-{[(3S)-3-fluoropyrrolidin-1-yl]methyl}[1]benzofuro[3,2-d]pyrimidin-4(3H)-one] | < 10 | < 10 | < 10 | < 0.1 |  | 
O=c1[nH]c(C[C@H]2CCCNC2)nc2c1oc1ccc(Br)cc12 [Compound 315, 8-bromo-2-[(3R)-piperidin-3-ylmethyl][1]benzofuro[3,2-d]pyrimidin-4(3H)-one] | < 10 | < 10 | < 10 |  |  | 
O=C(Nc1ccc(-c2nc3c(oc4ccc(Br)cc43)c(=O)[nH]2)c(Cl)c1)c1csnn1 [Compound 406, N-[4-(8-bromo-4-oxo-3,4-dihydro[1]benzofuro[3,2-d]pyrimidin-2-yl)-3-chlorophenyl]-1,2,3-thiadiazole-4-carboxamide] | < 10 | < 10 | < 10 |  |  | 
O=c1[nH]c([C@@H]2C[C@H](O)CN2)nc2c1oc1ccc(Br)cc12 [Compound 511, 8-bromo-2-[(2S,4S)-4-hydroxypyrrolidin-2-yl][1]benzofuro[3,2-d]pyrimidin-4(3H)-one] | < 10 | < 10 | < 10 | < 0.1 |  | 
CC(C)(CN1CCCCC1)NCc1nc2c(oc3ccc(Br)cc32)c(=O)[nH]1 [Compound 191, 8-bromo-2-{[(1,1-dimethyl-2-piperidin-1-ylethyl)amino]methyl}[1]benzofuro[3,2-d]pyrimidin-4(3H)-one] | < 10 | < 10 | < 10 | < 0.1 |  | 
C[C@H](N)c1nc2c(oc3ccc(Br)cc32)c(=O)[nH]1 [Compound 492, 2-[(1S)-1-aminoethyl]-8-bromo[1]benzofuro[3,2-d]pyrimidin-4(3H)-one] | < 10 | < 10 | < 10 | < 0.1 |  | 
CN1CC(c2nc3c(oc4ccc(Br)cc43)c(=O)[nH]2)C1 [Compound 221, 8-Bromo-2-(1-methylazetidin-3-yl)[1]benzofuro[3,2-d]pyrimidin-4(3H)-one] | < 10 | < 10 | < 10 | < 0.1 |  | 
NC(c1ccccc1)c1nc2c(oc3ccc(Br)cc32)c(=O)[nH]1 (centres unmarked) [Compound 174, 2-[amino(phenyl)methyl]-8-bromo[1]benzofuro[3,2-d]pyrimidin-4(3H)-one] | < 10 | < 10 | < 10 | < 0.1 |  | 
O=c1[nH]c(CN2CC3CCC2C3O)nc2c1oc1ccc(Br)cc12 (centres unmarked) [Compound 412, 8-bromo-2-[(7-hydroxy-2-azabicyclo[2.2.1]hept-2-yl)methyl][1]benzofuro[3,2-d]pyrimidin-4(3H)-one] | < 10 | < 10 | < 10 | < 0.1 |  | 
O=c1[nH]c(N2CCOCC2)nc2c1oc1ccc(Br)cc12 [Compound 147, 8-bromo-2-morpholin-4-yl[1]benzofuro[3,2-d]pyrimidin-4(3H)-one] | < 10 | < 10 | < 10 | < 0.1 |  | 
CNC1CCN(Cc2nc3c(oc4ccc(Br)cc43)c(=O)[nH]2)C1 (centres unmarked) [Compound 118, 8-bromo-2-{[3-(methylamino)pyrrolidin-1-yl]methyl}[1]benzofuro[3,2-d]pyrimidin-4(3H)-one] | < 10 | < 10 | < 10 |  |  | 
O=c1[nH]c(CNC2CCCC2)nc2c1oc1ccc(Br)cc12 [Compound 199, 8-bromo-2-[(cyclopentylamino)methyl][1]benzofuro[3,2-d]pyrimidin-4(3H)-one] | < 10 | < 10 | < 10 | < 0.1 |  | 
O=c1[nH]c(-c2ccc(NCCC3CCCNC3)cc2Cl)nc2c1oc1ccc(Br)cc12 (centres unmarked) [Compound 155, 8-bromo-2-{2-chloro-4-[(2-piperidin-3-ylethyl)amino]phenyl}[1]benzofuro[3,2-d]pyrimidin-4(3H)-one] | < 10 | < 10 | < 10 |  |  | 
O=c1[nH]c([C@@H]2CCCN2)nc2c1oc1ccc(Br)cc12 [Compound 470, 8-bromo-2-[(2S)-pyrrolidin-2-yl][1]benzofuro[3,2-d]pyrimidin-4(3H)-one] | < 10 | < 10 | < 10 | < 0.1 |  | 
COc1ccc2oc3c(=O)[nH]c(CN4CC[C@H](O)C4)nc3c2c1 [Compound 451, 2-{[(3S)-3-hydroxypyrrolidin-1-yl]methyl}-8-(methyloxy)[1]benzofuro[3,2-d]pyrimidin-4(3H)-one] | < 10 | < 10 | < 10 |  |  | 
CN1CCC(c2nc3c(oc4ccc(Br)cc43)c(=O)[nH]2)CC1 [Compound 185, 8-Bromo-2-(1-methylpiperidin-4-yl)[1]benzofuro[3,2-d]pyrimidin-4(3H)-one] | < 10 | < 10 | < 10 | < 0.1 |  | 
CC(C)(N)c1nc2c(oc3ccc(Cl)cc32)c(=O)[nH]1 [Compound 49, 2-(1-Amino-1-methylethyl)-8-chloro[1]benzofuro[3,2-d]pyrimidin-4(3H)-one] | < 10 | < 10 | < 10 | < 0.1 |  | 
O=c1[nH]c(CN2CC=CC2)nc2c1oc1ccc(Br)cc12 [Compound 331, 8-bromo-2-(3-pyrrolin-1-ylmethyl)[1]benzofuro[3,2-d]pyrimidin-4(3H)-one] | < 10 | < 10 | < 10 | < 0.1 |  | 
COc1ccc(C(=O)Nc2ccc(-c3nc4c(oc5ccc(Br)cc54)c(=O)[nH]3)c(Cl)c2)cn1 [Compound 343, N-[4-(8-bromo-4-oxo-3,4-dihydro[1]benzofuro[3,2-d]pyrimidin-2-yl)-3-chlorophenyl]-6-(methyloxy)pyridine-3-carboxamide] | < 10 | < 10 | < 10 |  |  | 
CC(C)(C)OC(=O)N1CCC(NCc2ccc(-c3nc4c(oc5ccc(Br)cc54)c(=O)[nH]3)c(Cl)c2)CC1 [Compound 386, 1,1-dimethylethyl 4-({[4-(8-bromo-4-oxo-3,4-dihydro[1]benzofuro[3,2-d]pyrimidin-2-yl)-3-chlorophenyl]methyl}amino)piperidine-1-carboxylate] | < 10 | < 10 | < 10 |  |  | 
O=c1[nH]c(-c2nccs2)nc2c1oc1ccc(Br)cc12 [Compound 86, 8-bromo-2-(1,3-thiazol-2-yl)[1]benzofuro[3,2-d]pyrimidin-4(3H)-one] | < 10 | < 10 | < 10 |  |  | 
Cc1cc2c(cc1[N+](=O)O)oc1c(=O)[nH]c(CN3CC[C@H](O)C3)nc12 [Compound 433, hydroxy(2-{[(3S)-3-hydroxypyrrolidin-1-yl]methyl}-8-methyl-4-oxo-3,4-dihydro[1]benzofuro[3,2-d]pyrimidin-7-yl)oxoammonium] | < 10 | < 10 | < 10 |  |  | 
O=c1[nH]c([C@@H]2CCN2)nc2c1oc1ccc(Br)cc12 [Compound 509, 2-[(2S)-azetidin-2-yl]-8-bromo[1]benzofuro[3,2-d]pyrimidin-4(3H)-one] | < 10 | < 10 | < 10 | < 0.1 |  | 
